Results on 19 molecules are retold here after US9822130B2, “Triazolo-pyrazinyl derivatives useful as soluble guanylate cyclase activators” (Merck Sharp & Dohme Corp., priority 2014, dated 2017).

The target in this assay is T1, sGC α1/β1 heterodimer stably expressed in CHO-K1 cell line (CHO-K1/sGC) (Homo sapiens, UniProt Q02108+Q02153).
T1 construct: expressed in transfected cells
T1 sequence (Q02108 1-690): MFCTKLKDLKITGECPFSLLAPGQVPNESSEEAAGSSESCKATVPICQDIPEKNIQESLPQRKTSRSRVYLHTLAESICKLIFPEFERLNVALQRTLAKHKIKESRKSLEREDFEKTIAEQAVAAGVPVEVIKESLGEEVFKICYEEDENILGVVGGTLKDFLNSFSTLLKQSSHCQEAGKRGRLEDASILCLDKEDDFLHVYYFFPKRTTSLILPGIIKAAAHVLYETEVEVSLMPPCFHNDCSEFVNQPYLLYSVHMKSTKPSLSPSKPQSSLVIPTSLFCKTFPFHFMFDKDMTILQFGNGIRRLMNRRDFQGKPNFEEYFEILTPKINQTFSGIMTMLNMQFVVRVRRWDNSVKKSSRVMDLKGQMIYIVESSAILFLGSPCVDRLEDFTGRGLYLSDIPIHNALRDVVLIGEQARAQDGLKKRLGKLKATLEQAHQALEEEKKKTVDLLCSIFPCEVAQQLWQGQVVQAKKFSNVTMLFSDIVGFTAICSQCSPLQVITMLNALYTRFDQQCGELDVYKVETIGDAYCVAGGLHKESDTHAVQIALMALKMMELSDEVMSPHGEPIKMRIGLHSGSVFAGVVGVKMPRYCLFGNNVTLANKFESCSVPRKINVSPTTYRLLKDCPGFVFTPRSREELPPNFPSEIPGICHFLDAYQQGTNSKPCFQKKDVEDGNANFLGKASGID
T1 sequence (Q02153 1-619): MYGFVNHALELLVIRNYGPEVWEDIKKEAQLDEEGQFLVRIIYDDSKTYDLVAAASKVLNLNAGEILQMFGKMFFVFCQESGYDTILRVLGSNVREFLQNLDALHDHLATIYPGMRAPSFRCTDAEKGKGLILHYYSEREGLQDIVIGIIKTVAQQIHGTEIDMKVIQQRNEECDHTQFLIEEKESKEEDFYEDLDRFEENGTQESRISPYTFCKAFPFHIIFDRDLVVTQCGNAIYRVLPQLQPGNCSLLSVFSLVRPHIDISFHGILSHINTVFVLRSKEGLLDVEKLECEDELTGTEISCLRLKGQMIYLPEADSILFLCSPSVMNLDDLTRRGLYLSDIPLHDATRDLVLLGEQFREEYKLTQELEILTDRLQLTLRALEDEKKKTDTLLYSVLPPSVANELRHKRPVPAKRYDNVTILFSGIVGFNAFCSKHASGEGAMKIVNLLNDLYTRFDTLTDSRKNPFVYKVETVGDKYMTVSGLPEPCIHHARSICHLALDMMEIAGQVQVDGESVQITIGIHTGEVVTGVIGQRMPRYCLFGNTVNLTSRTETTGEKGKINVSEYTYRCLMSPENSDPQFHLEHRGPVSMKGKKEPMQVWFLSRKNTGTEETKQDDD
The assay can be described thus: Cell-based sGC Functional Assay (CASA Assay), cGMP generation. The following applies: CHO-K1/sGC cells, 1 hr at 37° C., cGMP by HTRF, presence or absence of 1 μM DETA-NO not given; for EC50: 4P fit, read-out: IP (nM) (inflection point); for Emax: read-out: % Act. (percent activation relative to maximum cGMP production of Compound A = 100%). The procedure, abridged:
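CHO-K1 cells stably expressing human sGC α1/β1 (4×10^5/mL, 0.5 mM IBMX) were treated with compounds (2.5% DMSO final) ± 1 μM DETA-NO for 1 hr at 37° C. Intracellular cGMP measured by HTRF. Activity expressed as % of Compound A maximal cGMP; IP and maximum fold induction from 4P fit.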
In general terms: In TR-FRET formats the signal depends on donor and acceptor labels being close together.

On to `CC1(c2ccc(Cl)cc2)C(=O)Nc2nc(-c3cn4ncnc4c(CCC(F)(F)F)n3)nc(O)c21` (stereo not shown) [Example 152A, 5-(4-chlorophenyl)-4-hydroxy-5-methyl-2-(8-(3,3,3-trifluoropropyl)-[1,2,4]triazolo[1,5-a]pyrazin-6-yl)-5H-pyrrolo[2,3-d]pyrimidin-6(7H)-one], for which the EC50 was found to be 133 nM and the Emax was found to be 70%.

As to `CC1(c2ccc(C(F)(F)F)cn2)C(=O)Nc2nc(-c3cn4ncnc4c(CCCC(F)(F)F)n3)nc(C(N)=O)c21` (stereo not shown) [Example 179B, 5-methyl-6-oxo-2-(8-(4,4,4-trifluorobutyl)-[1,2,4]triazolo[1,5-a]pyrazin-6-yl)-5-(5-(trifluoromethyl)pyridin-2-yl)-6,7-dihydro-5H-pyrrolo[2,3-d] pyrimidine-4-carboxamide], the EC50 was 90.2 nM.

Turning to `Cc1nc2c(CCC(F)(F)C(F)(F)F)nc(-c3nc(N)c4c(n3)NC(=O)C4(C)c3nnc(C4CC4)o3)cn2n1` (stereo not shown) [Example 103A, 4-amino-5-(5-cyclopropyl-1,3,4-oxadiazol-2-yl)-5-methyl-2-(2-methyl-8-(3,3,4,4,4-pentafluorobutyl)-[1,2,4]triazolo[1,5-a]pyrazin-6-yl)-5H-pyrrolo[2,3-d]pyrimidin-6(7H)-one], the EC50 is 219 nM.

Take `CC1(c2ccc(C#N)cn2)C(=O)Nc2nc(-c3cn4ncnc4c(CCC(F)(F)C(F)(F)F)n3)nc(O)c21` (stereo not shown) [Example 131A, 6-(4-hydroxy-5-methyl-6-oxo-2-(8-(3,3,4,4,4-pentafluorobutyl)-[1,2,4]triazolo[1,5-a]pyrazin-6-yl)-6,7-dihydro-5H-pyrrolo[2,3-d]pyrimidin-5-yl)nicotinonitrile]: the EC50 came out at 1470 nM.

For the molecule `Nc1nc(-c2cn3ncnc3c(CCCC(F)(F)F)n2)nc2c1C(c1ccc(Cl)c(F)c1)(C1CC1)C(=O)N2` (stereo not shown) [Example 33A, 4-amino-5-(4-chloro-3-fluorophenyl)-5-cyclopropyl-2-(8-(4,4,4-trifluorobutyl)-[1,2,4]triazolo[1,5-a]pyrazin-6-yl)-5H-pyrrolo[2,3-d]pyrimidin-6(7H)-one], the EC50 stood at 5.6 nM.

Regarding `Cc1ccc(C2(C)C(=O)Nc3nc(-c4cn5ncnc5c(CCCC(F)(F)F)n4)nc(N)c32)nc1` (stereo not shown) [Example 46B, 4-amino-5-methyl-5-(5-methylpyridin-2-yl)-2-(8-(4,4,4-trifluorobutyl)-[1,2,4]triazolo[1,5-a]pyrazin-6-yl)-5H-pyrrolo[2,3-d]pynmidin-6(7H)-one], the EC50 was determined as 10.1 nM.

On to `Nc1nc(-c2cn3ncnc3c(CCCC(F)(F)F)n2)nc2c1C(c1ccc(O)cn1)(C1CC1)C(=O)N2` (stereo not shown) [Example 112A, 4-amino-5-cyclopropyl-5-(5-hydroxypyridin-2-yl)-2-(8-(4,4,4-trifluorobutyl)-[1,2,4]triazolo[1,5-a]pyrazin-6-yl)-5H-pyrrolo[2,3-d]pyrimidin-6(7H)-one], for which the EC50 was found to be 212 nM.

With `CCCCc1nc(-c2nc(N)c3c(n2)NC(=O)C3(c2ccc(Cl)cn2)C2CC2)cn2ncnc12` (stereo not shown) [Example 68A, 4-amino-2-(8-butyl-[1,2,4]triazolo[1,5-a]pyrazin-6-yl)-5-(5-chloropyridin-2-yl)-5-cyclopropyl-5H-pyrrolo[2,3-d]pyrimidin-6(7H)-one], the EC50 was 18.7 nM.

For `Cc1ccc(C2(C)C(=O)Nc3nc(-c4cn5ncnc5c(CCC(F)(F)C(F)(F)F)n4)nc(N)c32)nc1` (stereo not shown) [Example 19B, 4-amino-5-methyl-5-(5-methylpyridin-2-yl)-2-(8-(3,3,4,4,4-pentafluorobutyl)-[1,2,4]triazolo[1,5-a]pynizin-6-yl)-5H-pyrrolo[2,3-d]pyrimidin-6(7H)-one], the EC50 amounted to 14.7 nM.

For the molecule `CCCc1nc(-c2nc(N)c3c(n2)NC(=O)[C@@]3(C)c2ccc(F)cc2)cn2ncnc12` [Example 52A, (S)-4-amino-5-(4-fluorophenyl)-5-methyl-2-(8-propyl-[1,2,4]triazolo[1,5-a]pyrazin-6-yl)-5,7-dihydro-6H-pyrrolo[2,3-d]pyrimidin-6-one], the EC50 was found to be 63.2 nM.

On to `Cc1nc2c(CCC(F)(F)C(F)(F)F)nc(-c3nc(N)c4c(n3)NC(=O)[C@@]4(C)c3ccc(F)cc3)cn2n1` [Example 88B, (S)-4-amino-5-(4-fluorophenyl)-5-methyl-2-(2-methyl-8-(3,3,4,4,4-pentafluorobutyl)-[1,2,4]triazolo[1,5-a]pyrazin-6-yl)-5H-pyrrolo[2,3-d]pyrimidin-6(7H)-one], for which the EC50 was determined as 65 nM.

For `Nc1nc(-c2cn3ncnc3c(CCC(F)(F)C(F)(F)F)n2)nc2c1C(c1cncc(F)c1)(C1CC1)C(=O)N2` (stereo not shown) [Example 8B, 4-amino-5-cyclopropyl-5-(5-fluoropyridin-3-yl)-2-(8-(3,3,4,4,4-pentafluorobutyl)-[1,2,4]triazolo[1,5-a]pyrazin-6-yl)-5H-pyrrolo[2,3-d]pyrimidin-6(7H)-one], the EC50 was 294 nM.

For `CC1(c2ncc(C(F)(F)F)cn2)C(=O)Nc2nc(-c3cn4ncnc4c(CCCC(F)(F)F)n3)nc(N)c21` (racemic) [Example 51B, 4-amino-5-methyl-2-(8-(4,4,4-trifluorobutyl)-[1,2,4]triazolo[1,5-d]pyrazin-6-yl)-5-(5-(trifluoromethyl)pyrimidin-2-yl)-5H-pyrrolo[2,3-d]pyrimidin-6(7H)-one], the EC50 stood at 15.1 nM.

Take `Nc1nc(-c2cn3ncnc3c(CCC(F)(F)F)n2)nc2c1C(c1ccc(C(F)(F)F)cn1)(C1CC1)C(=O)N2` (stereo not shown) [Example 80A, 4-amino-5-cyclopropyl-5-(5-(trifluoromethyl)pyridin-2-yl)-2-(8-(3,3,3-trifluoropropyl)-[1,2,4]triazolo[1,5-a]pyrazin-6-yl)-5H-pyrrolo[2,3-d]pyrimidin-6(7H)-one]: the EC50 was found to be 2490 nM.

`C[C@@]1(c2ccc(F)cc2)C(=O)Nc2nc(-c3cn4ncnc4c(Cc4ccc(F)cc4)n3)nc(O)c21` [Example 162B, (S)-2-(8-(4-fluorobenzyl)-[1,2,4]triazolo[1,5-a]pyrazin-6-yl)-5-(4-fluorophenyl)-4-hydroxy-5-methyl-5H-pyrrolo[2,3-d]pyrimidin-6(7H)-one]: the EC50 worked out at 96.7 nM and the Emax is 100%.

Turning to `CC1(c2ccc(Cl)c(F)c2)C(=O)Nc2nc(-c3cn4ncnc4c(CCC(F)(F)C(F)(F)F)n3)nc(O)c21` (stereo not shown) [Example 121B, 5-(4-chloro-3-fluorophenyl)-4-hydroxy-5-methyl-2-(8-(3,3,4,4,4-pentafluorobutyl)-[1,2,4]triazolo[1,5-a]pyrazin-6-yl)-5H-pyrrolo[2,3-d]pyrimidin-6(7H)-one], the EC50 was found to be 130 nM.

For `CCCc1nc(-c2nc(O)c3c(n2)NC(=O)C3(C)c2ccc(Cl)c(F)c2)cn2ncnc12` (stereo not shown) [Example 166B, 5-(4-chloro-3-fluorophenyl)-4-hydroxy-5-methyl-2-(8-propyl-[1,2,4]triazolo[1,5-a]pyrazin-6-yl)-5H-pyrrolo[2,3-d]pyrimidin-6(7H)-one], the EC50 is 711 nM.

`CC1(c2ccc(Cl)cn2)C(=O)Nc2nc(-c3cn4ncnc4c(CCCC(F)(F)F)n3)nc(O)c21` (stereo not shown) [Example 134A, 5-(5-chloropyridin-2-yl)-4-hydroxy-5-methyl-2-(8-(4,4,4-trifluorobutyl)-[1,2,4]triazolo[1,5-a]pyrazin-6-yl)-5H-pyrrolo[2,3-d]pyrimidin-6(7H)-one]: the EC50 was determined as 857 nM.

For `CC1(c2ccc(O)cn2)C(=O)Nc2nc(-c3cn4ncnc4c(CCC(F)(F)C(F)(F)F)n3)nc(N)c21` (stereo not shown) [Example 110A, 4-Amino-5-(5-hydroxypyridin-2-yl)-5-methyl-2-(8-(3,3,4,4,4-pentafluorobutyl)-[1,2,4]triazolo [1,5-a]pyrazin-6-yl)-5,7-dihydro-6H-pyrrolo [2,3-d]pyrimidin-6-one], the EC50 stood at 139 nM and the Emax is 70%.
